# Measurements from patent publication US9073851B2, “Compositions and methods for treating cancer” (Board of Regents, The University of Texas System, priority 2011, dated 2015).
# Experiments:
# [1] = Toxicity and body weight observation in mice
# eEF-2K = experiment: Western blot of MCF-7 cells treated with 5-NT; type: cell-based, human
# Procedure: (§1) FIG. 5. 5-NT down-regulates critical pro-tumorigenic processes in ER(+) MCF-7 triple negative breast cancer cells. […] 5-NT also induces PARP cleavage and LC3-II. Methods: MCF7 cells were cultured at 37° C. in DMEM supplemented with 5% FBS in a humid incubator with 5% CO2. Following incubation with or without 5-NT cells were lysed according to standard protocols for western blotting. Blots were quantified as in FIG. 3.
# as §1, with “FIG. 9.” for “FIG. 5.”, “MCF-7” for “MCF-7 triple negative”, “and LC3-II formation.” for “and LC3-II.”, “without 5-NT,” for “without 5-NT”, “FIG. 7.” for “FIG. 3.”
# MCF-7 cells = experiment: Apoptosis / cell death in MCF-7 cells (Annexin V, FACS); type: cell-based, human
# Procedure: Apoptosis was assessed by an Annexin V assay, monitoring PARP and caspase 9 cleavage by Western blot. To provide a comparative assay of apoptosis by Annexin V labeling, tumor cells (1×10^6) treated with CaMK-III siRNA or control siRNA for 24 to 96 hours were harvested and washed with PBS. Cells were resuspended in binding buffer and stained with Annexin V and propidium iodide (PI) according to the manufacturer's protocol (BD Pharmingen Annexin V kit, San Diego, Calif.). Positive cells were detected and quantified by FACS analysis.
# MCF10A = experiment: MTS cell viability assay on normal breast epithelium; type: cell-based, human; conditions: at IC50 to IC90 doses in breast cancer cells (MCF7)
# Text: (§2) (aka proliferation assay, in this case MTS assay was used. MTS, MTT, XTT all similar assays often used as cell viability/toxicity assay). Cell viability in response to compounds such as 5NT and KD06 was studied with a tetrazolium/formazan based assay (MTS, Celltiter 96 aqueous one solution cell proliferation assay, Promega, WI) [Akar U, Chaves-Reyez A, Barria g Tari A, Sanguino A, Kondo Y, Kondo S, Arun B, Lopez-Berestein G, Ozpolat B: Silencing of Bcl-2 expression by small interfering RNA induces autophagic cell death in MCF-7 breast cancer cells. Autophagy 2008, 4:669-679, Ozpolat 2007 MCR]. Cells were seeded in 96 wells plates at a density of 1.5 to 3.0×10^3 cells per well in 100 μl of medium. Next day the medium was removed and cells were treated with the drug in 100 μl of medium for 72 hours. Plates were read at 490 nm wavelength in an Elisa plate reader (Kinetic Microplate Reader, Molecular Devices Corporation, Sunnyvale, Calif.).
# 5-HT1B/1D receptor = experiment: cAMP levels; type: cell-based
# MCF7 cells = experiment: MTS cell viability/proliferation assay; type: cell-based, human
# Text: (§3) Viable and dead cells were detected by the trypan blue exclusion assay, where viable cells (non-stained) with intact membrane are able to exclude the dye, while dead cells take up the coloring blue agent from the media. To quantitatively assess the viability and/or proliferation of cells a MTS assay was used, which incorporates a redox indicator that changes color in response to metabolic activity. To study cell viability in response to CaMK-III siRNA or control siRNA and plasmid encoding CaMK-III or empty plasmid transfection cells were seeded in 96-well plates at a density of 3×10^3 cells per well in 100 μl of medium. Next day the medium was removed and cells were transfected with siRNA at different concentrations in 100 μl of medium plus transfection mix. Two days after transfection, the medium was removed and replaced by 180 μl of medium plus 20 μl of MTS and the cells were incubated under normal conditions until the color changed. Plates were read at dual wavelengths (570-595 nm) in an Elisa plate reader (Kinetic Microplate Reader, Molecular Devices Corporation, Sunnyvale, Calif.).
# as §2
# MCF7/Dox resistant cells = experiment: MTS cell viability/proliferation assay; type: cell-based, human
# Text: as §3, §2
# MDA-MB-231 tumors = experiment: Orthotopic MDA-MB-231 xenograft breast cancer model; type: in vivo, nude mice; conditions: DOPC nanoliposomal, i.v., 5.8 mg/kg twice weekly (4 weeks)
# Procedure: FIG. 3. New role for triptan derivatives targeting the 5-HT1B receptor as a therapeutic modality for breast cancer. (A). […] Treatments, twice per week (4 weeks) were safe and effective. Methods: Phospholipid dioleoylphosphatidylcholine (DOPC) and triptan 5-NT were mixed in tertiary butanol at a lipid:5-NT ratio of 10:1 (w/w). Tween 20 was added at a ratio of 1:20 ratio (w/w) and the mixture lyophilized overnight. The powder was reconstituted in saline and sonicated for one minute. The liposome formulation was injected (100 μl) into the tail vein. (B). 5-NT induces apoptotic cell death of ER(+) MCF-7 cells. (C). […] (D). […] (E). The 5-HT1B receptor is over-expressed in triple negative highly aggressive, and metastatic breast cancer cells as well as drug resistant (i.e. tamoxifen and doxorubicin) breast cancer cells. Methods: Blots were visualized with a FluorChem 8900 imager and quantified by a densitometer using the Alpha Imager application program.
# For in vivo delivery siRNA was incorporated into dioleoyl-sn-glycero-3-phosphocholine (DOPC). DOPC and siRNA were mixed in the presence of excess tertiary butanol at a ratio of 1:10 (w/w) siRNA/DOPC [Shaw L M. Methods Mol Biol 2005: 294:97-105]. Before in vivo administration, this preparation was hydrated with normal 0.9% saline in 100 μL for i.v injection per mouse. […]
# breast cancer cells = experiment: Cell viability assay, breast cancer cell panel or cell line not stated; type: cell-based, human; conditions: incl. MDA-468, BT20, MDa-MB231, SKBR3, MDA-MB435, T47D, ZR75.1
# Text: as §2
smiles,measurement,setting,value
"CCCCCCCCCOc1ccc2[nH]cc(CCN)c2c1 [5-NT, 5-nonylytryptamine]",toxicity (weight loss),[1]; high dose of 50 mg/kg,without displaying any toxicity
same,body weight,"[1]; liposome incorporated, i.v., 10 mg/kg, at least 15 doses, 4 weeks",did not lose any weight
same,"time to down-regulation of ERK/cyclin-D, Akt/mTor, IGF1-R, Src/Fak and eEF-2K",eEF-2K,≤ 4 h
same,induction of apoptosis,MCF-7 cells,induced robust apoptosis
same,cell death in combination with doxorubicin,MCF-7 cells; with a low dose of doxorubicin,synergistic cell death
same,toxicity against normal breast epithelium,MCF10A,not toxic
same,cAMP levels,5-HT1B/1D receptor,decrease cAMP levels
same,selectivity for tumorigenic MCF-7 compared to non-tumorigenic MCF-10A,MCF7 cells,much higher selectivity
same,inhibition of proliferation,MCF7 cells; ER(+),inhibits proliferation
same,inhibition of proliferation,MCF7/Dox resistant cells,inhibits proliferation
same,tumor growth,MDA-MB-231 tumors,significantly inhibits growth
same,cell survival (O.D.) in a large panel of breast cancer cells,breast cancer cells,effective against almost all breast cancer cell lines
